Here are results for two molecules from patent US20010019716A1 (priority 1996, published 2001).

In assay [1] the test system is Mycobacterium tuberculosis. As to conditions: in vivo; cited from earlier work.
The subject of assay [2] is HeLa cells. It is filed as cell-based.
The test system of assay [3] is HeLa cells. It is filed as cell-based. This is another data set of the same source.

On to `NNC(=O)c1ccncc1` [isoniazid], for which the “effective in preventing the disease” value in assay [1] was “about 90%”.
As to “TKRRITPKDVIDVRSVTTEINT [Inv3]”, the “blocking of uptake of Mcep-coated beads” value in assay [2] is on record as “competitively blocked”. Moreover, in assay [3], the “concentration of peptide at which internalization of the beads was achieved (as low as)” value worked out at 25 nM; the “concentration sufficient to permit uptake of the spheres by Hela cells” value is “nanomolar concentration”; the “entry of coated beads into HeLa cells compared with whole Mcep (SEQ. ID. No. 4)” value is recorded as “as efficiently as the whole Mcep”; the “uptake of coated 0.3 μm latex microspheres, transmission electron microscopy” value is on record as “uptake”.
